Assay results: PubChem BioAssay AID248 (DTP/NCI, 2004)
Inconclusive results and toxic doses are left out.

System: L1210 leukemia ip in BDF1 mice, survival T/C
Test: NCI In Vivo Anticancer Drug Screen. Data for tumor model L1210 Leukemia (intraperitoneal) in B6D2F1 (BDF1) mice
Conditions: higher = longer survival
How it was run: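 Value reflects the ratio of survival in compound-treated mice to survival in vehicle-treated controls, with both groups carrying the same transplanted tumor.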

C[C@@H](CN1CC(=O)NC(=O)C1)N1CC(=O)NC(=O)C1
T/C (endpoint: mean survival time, dose: 25.0 mg/kg/injection, schedule: Q04DX003 (ip), vehicle: saline): 116 % of control | T/C (endpoint: mean survival time, dose: 25.0 mg/kg/injection, schedule: Q04DX003 (ip), vehicle: water): 111 % of control | T/C (endpoint: mean survival time, dose: 32.0 mg/kg/injection, schedule: Q04DX003 (oral), vehicle: saline): 117 % of control | T/C (endpoint: mean survival time, dose: 50.0 mg/kg/injection, schedule: Q04DX003 (ip), vehicle: saline): 116 % of control | T/C (endpoint: mean survival time, dose: 50.0 mg/kg/injection, schedule: Q04DX003 (ip), vehicle: water): 100 % of control | T/C (endpoint: mean survival time, dose: 64.0 mg/kg/injection, schedule: Q04DX003 (oral), vehicle: saline): 151 % of control | T/C (endpoint: mean survival time, dose: 100.0 mg/kg/injection, schedule: Q04DX003 (ip), vehicle: saline): 115 % of control | T/C (endpoint: mean survival time, dose: 128.0 mg/kg/injection, schedule: Q04DX003 (oral), vehicle: saline): 180 % of control | T/C (endpoint: mean survival time, dose: 256.0 mg/kg/injection, schedule: Q04DX003 (oral), vehicle: saline): 180 % of control | T/C (endpoint: mean survival time, dose: 400.0 mg/kg/injection, schedule: Q04DX003 (ip), vehicle: saline): 150 % of control | T/C (endpoint: mean survival time, dose: 400.0 mg/kg/injection, schedule: Q04DX003 (ip), vehicle: water): 158 % of control | T/C (endpoint: mean survival time, dose: 512.0 mg/kg/injection, schedule: Q04DX003 (oral), vehicle: saline): 155 % of control | T/C (endpoint: mean survival time, dose: 800.0 mg/kg/injection, schedule: Q04DX003 (ip), vehicle: saline): 187 % of control | T/C (endpoint: median survival time, dose: 8.0 mg/kg/injection, schedule: Q01DX009 (sc), vehicle: saline): 118 % of control | T/C (endpoint: median survival time, dose: 8.0 mg/kg/injection, schedule: Q03HX008 (ip), vehicle: saline): 152 % of control | T/C (endpoint: median survival time, dose: 8.0 mg/kg/injection, schedule: Q03HX016 (ip), vehicle: saline): 173 % of control | T/C (endpoint: median survival time, dose: 8.0 mg/kg/injection, schedule: Q03HX024 (ip), vehicle: saline): 263 % of control | T/C (endpoint: median survival time, dose: 16.0 mg/kg/injection, schedule: Q01DX009 (sc), vehicle: saline): 119 % of control | T/C (endpoint: median survival time, dose: 16.0 mg/kg/injection, schedule: Q03HX008 (ip), vehicle: saline): 152 % of control | T/C (endpoint: median survival time, dose: 16.0 mg/kg/injection, schedule: Q03HX016 (ip), vehicle: saline): 186 % of control | T/C (endpoint: median survival time, dose: 16.0 mg/kg/injection, schedule: Q03HX024 (ip), vehicle: saline): 300 % of control | T/C (endpoint: median survival time, dose: 32.0 mg/kg/injection, schedule: Q03HX008 (ip), vehicle: saline): 155 % of control | T/C (endpoint: median survival time, dose: 32.0 mg/kg/injection, schedule: Q03HX016 (ip), vehicle: saline): 193 % of control | T/C (endpoint: median survival time, dose: 32.0 mg/kg/injection, schedule: Q03HX024 (ip), vehicle: saline): 113 % of control | T/C (endpoint: median survival time, dose: 64.0 mg/kg/injection, schedule: Q01DX001 (ip), vehicle: saline): 108 % of control | T/C (endpoint: median survival time, dose: 64.0 mg/kg/injection, schedule: Q01DX009 (sc), vehicle: saline): 159 % of control | T/C (endpoint: median survival time, dose: 64.0 mg/kg/injection, schedule: Q03HX008 (ip), vehicle: saline): 158 % of control | T/C (endpoint: median survival time, dose: 64.0 mg/kg/injection, schedule: Q03HX024 (ip), vehicle: saline): 94 % of control | T/C (endpoint: median survival time, dose: 64.0 mg/kg/injection, schedule: Q04DX003 (ip), vehicle: saline): 110 % of control | T/C (endpoint: median survival time, dose: 64.0 mg/kg/injection, schedule: Q04DX003 (sc), vehicle: saline): 106 % of control | T/C (endpoint: median survival time, dose: 64.0 mg/kg/injection, schedule: Q08DX002 (ip), vehicle: saline): 104 % of control | T/C (endpoint: median survival time, dose: 128.0 mg/kg/injection, schedule: Q01DX001 (ip), vehicle: saline): 106 % of control | T/C (endpoint: median survival time, dose: 128.0 mg/kg/injection, schedule: Q03HX008 (ip), vehicle: saline): 152 % of control | T/C (endpoint: median survival time, dose: 128.0 mg/kg/injection, schedule: Q03HX016 (ip), vehicle: saline): 107 % of control | T/C (endpoint: median survival time, dose: 128.0 mg/kg/injection, schedule: Q03HX024 (ip), vehicle: saline): 86 % of control | T/C (endpoint: median survival time, dose: 128.0 mg/kg/injection, schedule: Q04DX003 (ip), vehicle: saline): 118 % of control | T/C (endpoint: median survival time, dose: 128.0 mg/kg/injection, schedule: Q04DX003 (sc), vehicle: saline): 109 % of control | T/C (endpoint: median survival time, dose: 256.0 mg/kg/injection, schedule: Q01DX001 (ip), vehicle: saline): 109 % of control | T/C (endpoint: median survival time, dose: 256.0 mg/kg/injection, schedule: Q04DX003 (ip), vehicle: saline): 118 % of control | T/C (endpoint: median survival time, dose: 256.0 mg/kg/injection, schedule: Q08DX002 (ip), vehicle: saline): 121 % of control | T/C (endpoint: median survival time, dose: 512.0 mg/kg/injection, schedule: Q01DX001 (ip), vehicle: saline): 111 % of control | T/C (endpoint: median survival time, dose: 512.0 mg/kg/injection, schedule: Q04DX003 (sc), vehicle: saline): 182 % of control | T/C (endpoint: median survival time, dose: 1024.0 mg/kg/injection, schedule: Q04DX003 (ip), vehicle: saline): 186 % of control | T/C (endpoint: median survival time, dose: 1024.0 mg/kg/injection, schedule: Q04DX003 (sc), vehicle: saline): 236 % of control | T/C (endpoint: median survival time, dose: 1024.0 mg/kg/injection, schedule: Q08DX002 (ip), vehicle: saline): 150 % of control
